Measured values taken from article PMC4657098, “A Review of the Updated Pharmacophore for the Alpha 5 GABA(A) Benzodiazepine Receptor Model” (International Journal of Medicinal Chemistry, 2015).
Several values for one entry are separate records, joined by “and”; a condition that tells them apart may be missing. Equal entries are not always repeated. Where two headings read alike, the source gives them in different places.

What was measured:
[1] = target: T1, α4β3γ2 GABAA/BzR (Homo sapiens, UniProt P18507+P48169); test: biochemical; assay type: binding; details: read-out: Ki α4
T1 construct: expressed in transfected cells; host or cells: LTK cells (given for XLi-093 only)

[2] = target: α2β3γ2 GABAA/BzR (Homo sapiens, UniProt P18507+P47869); test: Competition binding to HEK cell membranes, α2β3γ2; design: expressed in transfected cells
[3] = target: α3β3γ2 GABAA/BzR (Homo sapiens, UniProt P18507+P34903); test: Competition binding to HEK cell membranes, α3β3γ2; design: expressed in transfected cells
[4] = target: α6β3γ2 GABAA/BzR (Homo sapiens, UniProt P18507+Q16445); test: Competition binding to HEK cell membranes, α6β3γ2; design: expressed in transfected cells
[5] = target: α5β3γ2 GABAA/BzR (Homo sapiens, UniProt P18507+P31644); test: Competition binding to HEK cell membranes, α5β3γ2; design: expressed in transfected cells
[6] = target: α1β3γ2 GABAA/BzR (Homo sapiens, UniProt P14867+P18507); test: Competition binding to HEK cell membranes, α1β3γ2; design: expressed in transfected cells

SMILES | Ki [1] [nM] | Ki ([2]; read-out: Ki α2) [nM] | Ki ([3]; read-out: Ki α3) [nM] | Ki ([4]; read-out: Ki α6) [nM] | Ki ([5]; read-out: Ki α5) [nM] | Ki ([6]; read-out: Ki α1) [nM] | also measured
CCC(OC(=O)c1ncn2c1C1CCCN1C(=O)c1cc(Br)ccc1-2)C(F)(F)F (mixture of isomers) [CM-B34] | 114 | 451 | 223 | 175 | 17 | 472 | –
CCC(OC(=O)c1ncn2c1C1CCCN1C(=O)c1cc(Cl)ccc1-2)C(F)(F)F (mixture of isomers) [CM-B45] | 265 | 557 | 336 | 230 | 15 | 230 | –
CCC(OC(=O)c1ncn2c1C1CCCN1C(=O)c1cc(F)ccc1-2)C(F)(F)F (mixture of isomers) [CM-B47] | 2010 | 63 | 34 | 717 | 4.4 | 32 | –
CC(C)(C)CC(=O)c1cc2c(cn1)[nH]c1ccccc12 [CM-A77] | 1000 | 51.9 | 105 | 1000 | 42.6 | 11.5 | –
CC(C)(C)OC(=O)c1cc2c(cn1)[nH]c1ccc(I)cc12 [CM-A100] | 1000 | 44.9 | 124 | 1000 | 65.3 | 14.5 | –
CCOC(=O)c1cc2c(cn1)[nH]c1ccc(I)cc12 [CM-B01] | 1000 | 31 | 34 | 1000 | 286 | 4.8 | –
CC[C@H](C)OC(=O)c1ncn2c1[C@@H]1CCCN1C(=O)c1cc(I)ccc1-2 [CM-B31i (ss)] | 18 | 184 | 78 | – | 4.9 | 90 | –
CC[C@H](C)OC(=O)c1ncn2c1[C@@H]1CCCN1C(=O)c1cc(F)ccc1-2 [CM-B44 (ss)] | 379 | 43 | 12 | 485 | 4.3 | 32 | –
CCC(C)OC(=O)c1ncn2c1C1CCCN1C(=O)c1cc(F)ccc1-2 (stereo not shown) [CM-B44] | 379 | 43 | 12 | 485 | 4.3 | 32 | –
CCOC(=O)c1ncn2c1C1CCN1C(=O)c1cc(OC)ccc1-2 (stereo not shown) [CM-D44] | 0.33 | 56.3 | 20.7 | 0.92 | 0.57 | 34.3 | –
COc1ccc2c(c1)C(=O)N1CCC1c1c(C(=O)OC(C)(C)C)ncn1-2 (stereo not shown) [CM-D45 C19H21N3O4] | 0.15 | 65.5 | 30.3 | 0.23 | 1.65 | 90.5 | –
COc1ccc2c(c1)C(=O)N1CC[C@H]1c1c(C(=O)OC(C)(C)C)ncn1-2 [CM-D45] | 0.15 | 65.5 | 30.3 | 0.23 | 1.65 | 90.5 | –
COc1ccc2c(c1)C(=O)N1CCC[C@H]1c1c(C(=O)OCC(F)(F)F)ncn1-2 [CM-E09a] | 490 | 192 | 122 | 718 | 9.2 | 176 | –
COc1ccc2c(c1)C(=O)N1CCCC1c1c(C(=O)OC(C)C)ncn1-2 (stereo not shown) [CM-E09b] | 55 | 22 | 19 | 69 | 0.45 | 20 | –
C#Cc1ccc2c(c1)C(c1ccccc1)=NCc1c(C(=O)OCC(F)(F)F)ncn1-2 [DM-II-20] | – | 27.1 | 35.7 | 5000 | 15.3 | 54.3 | –
O=C(OCC(F)(F)F)c1ncn2c1CN=C(c1ccccc1)c1ccccc1-2 [DM-II-30] | – | 13.4 | 28.5 | 5000 | 7.8 | 17.6 | –
O=C(OCC(Cl)(Cl)Cl)c1ncn2c1CN=C(c1ccccc1)c1cc(Br)ccc1-2 [DM-II-33 (C20H13N3O2BrCl3)] | – | 85 | 11.6 | 5000 | 26.2 | 88.6 | –
Cc1nnc2n1-c1ccc(Br)cc1C(c1ccccc1Cl)=NC2 [DM-II-90] | – | 1 | 0.63 | 5000 | 0.37 | 0.505 | –
CC(C)c1nc(-c2ncn3c2CN(C)C(=O)c2c(Cl)cccc2-3)no1 [FG8205, reference compound] | – | 2.08 | 1.16 | 227 | 1.54 | 0.4 | –
C#Cc1ccc2c(c1)C(c1cccs1)=NCc1c(C(=O)OCC)ncn1-2 [JC221] | – | 49.4 | 182 | 362 | 7.75 | 106 | –
CC(C)(C)OC(=O)c1ncn2c1[C@@H]1CCCN1C(=O)c1cc(-c3ccco3)ccc1-2 [JYI-06] | – | 5.48 | 5000 | 5000 | 12.6 | 16.5 | –

SMILES | Ki [1] [nM] | Ki ([2]; read-out: Ki α2) [nM] | Ki ([3]; read-out: Ki α3) [nM] | Ki ([4]; read-out: Ki α6) [nM] | Ki ([5]; read-out: Ki α5) [nM] | Ki ([6]; read-out: Ki α1) [nM] | also measured
O=C(OCC(F)(F)F)c1ncn2c1CN=C(c1ccccc1F)c1cc(-c3ccco3)ccc1-2 [JYI-54] | – | 172 | 6.7 | 1890 | 57 | 2.89 | –
C#Cc1ccc2c(c1)C(c1ccccc1F)=NCc1c(C(=O)OCC(F)(F)F)ncn1-2 [JYI-59] | – | 2.6 | 11.8 | 5000 | 11.5 | 1.08 | –
C#Cc1ccc2c(c1)C(c1ccccc1F)=NCC(=O)N2 [JYI-60] | – | 1.64 | 4.3 | 5000 | 1.7 | 3.73 | –
Cc1nnc2n1-c1ccc(Br)cc1C(c1ccccc1F)=NC2 [JYI-64 (C17H12N4FBr)] | – | 1.11 | 0.62 | 5000 | 0.87 | 0.305 | –
Cc1nnc2n1-c1ccc(Br)cc1C(c1ccccc1F)=NC2 [JYI-64] | – | 1.11 | 0.62 | 5000 | 0.87 | 0.305 | –
c1ccc2c(c1)[nH]c1cnc3c4cccnc4[nH]c3c12 [LJD-III-15E] | – | 14 | 19 | 1000 | 70.8 | 1.93 | –
c1ccc2c(c1)[nH]c1c2ncc2[nH]c3ccccc3c21 [MLT-I-70] | – | 1.2 | 1.1 | 1000 | 40.3 | 1.1 | –
Fc1ccc2c(c1)[nH]c1c2ncc2[nH]c3ccccc3c21 [MLT-II-16] | – | 10.4 | 18.4 | 10000 | 260 | 5.05 | –
Oc1ccc2c(c1)[nH]c1c2ncc2[nH]c3ccccc3c21 [MLT-II-34] | – | 15.9 | 22.3 | 1000 | 158 | 7.04 | –
O=C(OC(C(F)(F)F)C(F)(F)F)c1ncn2c1C1CCCN1C(=O)c1ccccc1-2 (stereo not shown) [MMB-III-18] | 3500 | 140 | 78 | – | 14 | – | –
CCCC(=O)c1cc2c(cn1)[nH]c1ccccc12 [MSA-IV-35] | – | 16 | 21 | 3000 | 995 | 2.1 | –
O=C1C2C=Nc3ccccc3C2=NN1c1ccccc1 (stereo not shown) [QH-II-090 (CGS-8216), reference compound] | – | – | – | – | – | – | Ki ([2]; Ki α2): 0.08 nM; Ki ([3]; Ki α3): 0.12 nM; Ki ([4]; Ki α6): 46 nM and 17 nM; Ki ([5]; Ki α5): 0.25 nM; Ki ([6]; Ki α1): 0.13 nM and 0.05 nM
O=c1c2c[nH]c3ccccc3c-2nn1-c1ccccc1 [QH-II-090] | – | 0.08 | 0.12 | 17 | 0.25 | 0.05 | –
C#Cc1ccc2c(c1)C(=O)N(C)Cc1c(C(=O)OC(C)(C)C)ncn1-2 [RY-024] | – | 26.3 | 18.7 | 5.1 | 0.4 | 26.9 | –
CCOC(=O)c1ncoc1-c1ncn2c1C1CCN1C(=O)c1cc(Br)ccc1-2 (stereo not shown) [RY-062 (12)] | – | – | – | – | – | – | Ki ([2]; Figure 5, read-out: Ki α2): > 1000 nM; Ki ([3]; Figure 5, read-out: Ki α3): > 500 nM; Ki ([4]; Figure 5, read-out: Ki α6): > 2000 nM; Ki ([5]; Figure 5, read-out: Ki α5): 172 nM; Ki ([6]; Figure 5, read-out: Ki α1): > 1000 nM
CCOC(=O)c1ncoc1-c1ncn2c1C1CCN1C(=O)c1cc(C#C[Si](C)(C)C)ccc1-2 (stereo not shown) [RY-068 (11)] | – | – | – | – | – | – | Ki ([2]; Figure 5, read-out: Ki α2): 877 nM; Ki ([3]; Figure 5, read-out: Ki α3): 496 nM; Ki ([4]; Figure 5, read-out: Ki α6): > 1000 nM; Ki ([5]; Figure 5, read-out: Ki α5): 37 nM; Ki ([6]; Figure 5, read-out: Ki α1): > 500 nM
C#Cc1ccc2c(c1)C(=O)N1CCC1c1c(-c3ocnc3C(=O)OCC)ncn1-2 (stereo not shown) [RY-069 (13)] | – | – | – | – | – | – | Ki ([2]; Figure 5, read-out: Ki α2): 622 nM; Ki ([3]; Figure 5, read-out: Ki α3): 506 nM; Ki ([4]; Figure 5, read-out: Ki α6): > 1000 nM; Ki ([5]; Figure 5, read-out: Ki α5): 19 nM; Ki ([6]; Figure 5, read-out: Ki α1): 692 nM
C#Cc1ccc2c(c1)C(=O)N1CCC1c1c(-c3ocnc3C(=O)OCC)ncn1-2 (stereo not shown) [RY-069] | – | – | – | – | – | – | Ki ([2]; Ki α2): 622 nM; Ki ([3]; Ki α3): 506 nM; Ki ([4]; Ki α6): 1000 nM; Ki ([5]; Ki α5): 19 nM; Ki ([6]; Ki α1): 692 nM
Cc1nnc2n1-c1ccc(Cl)cc1C(c1ccccc1)=NC2 [alprazolam, reference compound] | – | – | – | – | – | – | Ki ([2]; Ki α2): 0.59 nM; Ki ([3]; Ki α3): 1.43 nM; Ki ([4]; Ki α6): 10000 nM and 1000 nM; Ki ([5]; Ki α5): 1.54 nM; Ki ([6]; Ki α1): 0.8 nM
C#Cc1ccc2c(c1)C(=O)N(C)Cc1c(C(=O)OCCCCCOC(=O)c3ncn4c3CN(C)C(=O)c3cc(C#C)ccc3-4)ncn1-2 [compound 56, 1,5-Bis(8-acetyleno-5,6-dihydro-5-methyl-6-oxo-4H-imidazo[1,5a][1,4]benzodiazepine-3-carboxy) pentyl diester] | – | – | – | – | – | – | Ki ([2]; Ki α2): 661 nM; Ki ([3]; Ki α3): 2670 nM; Ki ([4]; Ki α6): 54.2 nM; Ki ([5]; Ki α5): 5.4 nM; Ki ([6]; Ki α1): 231 nM
